Read-outs that look alike come from different tables or passages of the source.
Key:
MT4 = experiment: Intracellular phosphorylation of 3H-FTdR in MT4 cells; assay type: in vitro ADME; conditions: 1/um 3H-FTdR, within 24 hours, Human MT4
Experimental: (§1) The critical factor for 3'-fluoro-substituted deoxynucleosides to reach a high intracellular efficiency is their ability to be phosphorylated in situ in the infected cells. […] By comparison, the phosphorylation of 50 μm N3 -TdR by HTLV-IIIB -infected H9 cells to the triphosphate during a 24-hour incubation has been reported to reach only 0.9 pmoles/10^6 cells and to be accompanied by an extreme accumulation of the monophosphate of N3 -TdR (460 pmoles/10^6 cells), reflecting a strong inhibition of the dTMP-kinase (Furman et al., Proc. Natl. Acad. Sci. U.S.A. 83 8333 (1986)) and entailing considerable alterations of the deoxynucleoside triphosphate substrate pools (Furman et al., loc. cit.) which affect cellular DNA synthesis.
(§2) Synthesis of nucleotides from 1/um^3 H-FTdR (tritium labeled)
(§3) in cells of various species within 24 hours.

CEM (LAV-II) = experiment: Intracellular phosphorylation of 3H-FTdR in CEM (LAV-II) cells; assay type: in vitro ADME; conditions: 1/um 3H-FTdR, within 24 hours, Human CEM (LAV-II)
Experimental: as §1, §2, §3

H9 (HTLV-IIIB) = experiment: Intracellular phosphorylation of 3H-FTdR in H9 (HTLV-IIIB) cells; assay type: in vitro ADME; conditions: 1/um 3H-FTdR, within 24 hours, Human H9 (HTLV-IIIB)
Experimental: as §1, §2, §3

NRK-49F = experiment: Intracellular phosphorylation of 3H-FTdR in NRK-49F cells; assay type: in vitro ADME; conditions: 1/um 3H-FTdR, within 24 hours, Rat NRK-49F
Experimental: as §1, §2, §3

3T3 = experiment: Intracellular phosphorylation of 3H-FTdR in 3T3 cells; assay type: in vitro ADME; conditions: 1/um 3H-FTdR, within 24 hours, Mouse 3T3
Experimental: as §1, §2, §3

[1] = target: T1, thymidine-phosphorylase from human spleen (Homo sapiens, UniProt P19971); experiment: Phosphorolytic cleavage by thymidine-phosphorylase; assay type: in vitro ADME
T1 construct: thymidine-phosphorylase from human spleen; from tissue; host or cells: human spleen
T1 sequence (P19971 11-482): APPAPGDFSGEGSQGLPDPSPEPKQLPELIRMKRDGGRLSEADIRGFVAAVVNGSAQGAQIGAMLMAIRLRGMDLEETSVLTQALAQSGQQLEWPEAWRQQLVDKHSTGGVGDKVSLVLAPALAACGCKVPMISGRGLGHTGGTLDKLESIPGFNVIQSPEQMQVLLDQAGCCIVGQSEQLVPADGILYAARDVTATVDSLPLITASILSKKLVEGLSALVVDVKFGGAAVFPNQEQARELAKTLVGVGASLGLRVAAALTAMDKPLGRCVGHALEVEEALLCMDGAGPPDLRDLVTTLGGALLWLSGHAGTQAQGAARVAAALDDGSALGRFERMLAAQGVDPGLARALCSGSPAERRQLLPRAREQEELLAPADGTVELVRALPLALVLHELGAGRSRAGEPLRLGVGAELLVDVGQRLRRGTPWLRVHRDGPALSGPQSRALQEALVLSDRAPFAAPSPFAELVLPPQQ
From the text: Therefore FTdR, FddBrUrd and FddFUrd were investigated for their ability to be cleaved by thymidine-phosphorylase from human spleen.

HIV = experiment: Inhibition of the cytopathic effect of HIV on MT-4 cells; assay type: cell-based; conditions: for EC50: Human immunodeficiency virus 1, MT4, 144 h
Experimental: (§4) Under in vitro conditions immortalized T-lymphocytes can be killed within few days by the cytopathic effect of HIV. […] For this purpose about 20,000 MT-4 cells (Harada et al. Science 229, 563 (1985)) Were infected with HIV (titer: 0.04 m.o.i.) and incubated in the presence or absence of varying concentrations of compounds according to formula I, with 10% fetal calf serum (FCS) in 200 μl RPMI medium. After 6 days of incubation the viable cells were counted that were excluded from trypan blue staining.

in vitro = conditions: human, mt-4 cells
Experimental: as §4

[2] = system: K-562 acute myeloic leukemia; experiment: Inhibition of proliferation of K-562 cells; assay type: cell-based; conditions: Homo sapiens
From the text: (§5) Originally FTdR was developed as a cytostatic agent (P. Langen et al., Acta biol. med. Germ. 23, 759, 1969; and U.S. Pat. No. 3,775,397) and, therefore, its cytostatic efficacy has been examined in extensive prior studies. […] Ehrlich-mouse-ascites-carcinoma cells (EMAC) represents an exception to that finding, and this is probably connected to its high capability of phosphorylation of FTdR, which is 10 times higher than in human cells. The fast reversibility of the cytostatic effects on EMAC cells was regarded as a special property of this compound (P. Langen et al., Europ. J. Cancer. 14. 349, 1978). The antiproliferative effect of FTdR and FddUrd, and in comparison thereto of N3 -TdR were tested on human cell lines with regard to a possible use in humans. […] When FTdR is compared to N3 -TdR. The effects are very similar, however somewhat lower in each case for N3 -TdR than for FTdR.
(§6) CD50 : inhibitory dose required to reduce the cell number by 50%

[3] = system: REH acute lymphatic leukemia; experiment: Inhibition of proliferation of REH cells; assay type: cell-based; conditions: Homo sapiens
From the text: as §5, §6

[4] = system: K-37 immortalized T-cells; experiment: Inhibition of proliferation of K-37 cells; assay type: cell-based; conditions: Homo sapiens, T-cell
From the text: as §5, §6

H9 immortalized T-cells = experiment: Inhibition of proliferation of H9 cells; assay type: cell-based; conditions: Homo sapiens, T-cell
From the text: as §5, §6

[5] = system: Rauscher murine leukemia virus (RLV); experiment: Antiretroviral activity in mice infected with Rauscher murine leukemia virus; assay type: in vivo; conditions: for Reverse transcriptas serum / mean spleen weight: RLV +; for Reverse transcriptas serum: 100% = 66000 dpm, treatment discontinued 12 hours before
Experimental: (§7) Therefore we examined the toxicity and antiretroviral activity of FTdR in mice infected with Rauscher murine leukemia virus. Different doses of FTdR were applied to BalB/c Han strain of mice in plain water for 20 days beginning 2-8 hours after RLV infection.

[6] = Toxicity of continuous oral FTdR in mice
Experimental: as §7

[7] = system: 9 different animal tumors; conditions: NCI program; cited from earlier work
[8] = system: Ehrlich-mouse-ascites-carcinoma cells (EMAC); conditions: cited from earlier work
[9] = system: HTLV-IIIB -infected H9 cells; conditions: 50 μm N3 -TdR, 24-hour incubation; cited from earlier work
[10] = AIDS patients treated; cited from earlier work
[11] = oral 1.8 mg/kg/day, given for 24 days
[12] = 6.5 mg/kg/day in drinking water for 20 days, RLV +
[13] = 6.5 mg/kg/day in drinking water for 20 days, RLV -
[14] = 69.0 mg/kg/day in drinking water for 20 days, RLV +
[15] = 69.0 mg/kg/day in drinking water for 20 days, RLV -

Cc1cn([C@H]2C[C@H](F)[C@@H](CO)O2)c(=O)[nH]c1=O [FTdR, 2',3'-dideoxy-3'-fluorothymidine]
diphosphate (FdTDP) (MT4): 1.6 pmoles/106 cells | monophosphate (FdTMP) (MT4): 9.9 pmoles/106 cells | triphosphate (FdTTP) (MT4): 5.6 pmoles/106 cells | diphosphate (FdTDP) (CEM (LAV-II)): 0.5 pmoles/106 cells | monophosphate (FdTMP) (CEM (LAV-II)): 6.1 pmoles/106 cells | triphosphate (FdTTP) (CEM (LAV-II)): 2.8 pmoles/106 cells | diphosphate (FdTDP) (H9 (HTLV-IIIB)): 0.3 pmoles/106 cells | monophosphate (FdTMP) (H9 (HTLV-IIIB)): 3.3 pmoles/106 cells | triphosphate (FdTTP) (H9 (HTLV-IIIB)): 1.4 pmoles/106 cells | diphosphate (FdTDP) (NRK-49F): 3.7 pmoles/106 cells | monophosphate (FdTMP) (NRK-49F): 3.5 pmoles/106 cells | triphosphate (FdTTP) (NRK-49F): 13.2 pmoles/106 cells | diphosphate (FdTDP) (3T3): 2.2 pmoles/106 cells | monophosphate (FdTMP) (3T3): 0.38 pmoles/106 cells | triphosphate (FdTTP) (3T3): 16.3 pmoles/106 cells | metabolised at 3 h, 1000 µM [1]: 3 to 8% | EC50 (HIV; read-out: ED50 (the source's name)): 0.003 µM | antiviral activity of FTdR against N3 -TdR (HIV; cellular test, ratio of ED50): 5 times | CC50 at 144 h (in vitro): 1.1 µM | IC50 ([2]; K562, dose required to reduce the cell number by 50%, K-562, read-out: CD50 (the source's name)): 45 µM | IC50 ([3]; dose required to reduce the cell number by 50%, read-out: CD50 (the source's name)): 160 µM | IC50 ([4]; dose required to reduce the cell number by 50%, K-37, read-out: CD50 (the source's name)): 260 µM | IC50 (H9 immortalized T-cells; dose required to reduce the cell number by 50%, H9, read-out: CD50 (the source's name)): 1000 µM | suppression of splenomegaly and viremia ([5]; 6.5 mg/kg/day): completely active in suppressing splenomegaly and viremia | Reverse transcriptas serum ([5]; 6.5 mg/kg/day for 20 days): 0% | mean spleen weight ([5]; 6.5 mg/kg/day in drinking water for 20 days): 192 mg | splenomegaly and RLV-associated reverse transcriptase activity in the serum ([5]; 69.0 mg/kg/day): completely suppresses | Reverse transcriptas serum ([5]; 69.0 mg/kg/day for 20 days): 0% | mean spleen weight ([5]; 69.0 mg/kg/day in drinking water for 20 days): 86 mg | development of RLV induced leukemia ([5]; 69.0 mg/kg/day, continuous application for 20 days): able to prevent the development of a leukemia | suppression of serum reverse transcriptase activity [5, 11]: more than 70% | suppression of splenomegaly [5, 11]: more than 50% | signs of anemia and depression of white cell counts ([6]; 6.5 mg/kg/day): failed to produce signs of anemia and depression of white cell counts | Hemoglobin [6, 12]: 8.1 mmol/L | changes of body weight [6, 12]: 0% | Hemoglobin [6, 13]: 8.9 mmol/L | changes of body weight [6, 13]: +1% | mean spleen weight [6, 13]: 125 mg | toxic side effects (hematological parameters) ([6]; 69.0 mg/kg/day): toxic side effects are associated with this concentration range | Hemoglobin [6, 14]: 5.1 mmol/L | changes of body weight [6, 14]: -10% | Hemoglobin [6, 15]: 4.3 mmol/L | changes of body weight [6, 15]: -12% | mean spleen weight [6, 15]: 72 mg | cytostatic effect [7]: only a weak cytostatic effect | capability of phosphorylation of FTdR in EMAC versus human cells [8]: 10 times

Cc1cn([C@H]2C[C@H](N=[N+]=[N-])[C@@H](CO)O2)c(=O)[nH]c1=O [N3 -TdR, 3'-azido-2',3'-dideoxythymidine, reference compound]
EC50 (HIV; read-out: ED50): 0.016 µM | IC50 ([2]; K562, read-out: CD50): 50 µM | IC50 ([3]; read-out: CD50): 220 µM | IC50 ([4]; read-out: CD50): 500 µM | IC50 (H9 immortalized T-cells; read-out: CD50): 800 µM | accumulation of the monophosphate [9]: 460 pmoles/10^6 cells | phosphorylation to the triphosphate [9]: 0.9 pmoles/10^6 cells | patients requiring blood transfusions (toxic side effects on the bone marrow) [10]: about 50%

Source: patent US5153180A, “Fluorinated nucleosides and process for treating retrovirus infections therewith” (priority 1990, dated 1992)
